Measured values published in patent US9345682B2, “Inhibition of STAT3 signal transduction for human cancer therapy” (University of South Florida, priority 1999, dated 2016).
Entries after “also recorded” stand apart in the source; their conditions may differ.

How the values were obtained:
STAT3 = test: EMSA of constitutive STAT3 DNA-binding activity in MDA-MB-468 breast carcinoma cells; format: cell-based, human; settings: MDA-MB-468 cells; dose-dependent
Experimental: FIG. 6: Src and JAK Inhibitors Block Growth and STAT3 Activation in Breast Carcinoma Cells. MDA-MD-468 cells are treated with inhibitors of EGF receptor (PD158780), Src (PD180970), or JAKs (AG490), and effects on cell growth (Panel A) and STAT3 DNA-binding activity (Panel B) are determined.
STAT DNA-binding activity in human breast cancer cell lines is examined by electrophoretic mobility shift assays (EMSA) (Garcia et al., 1997, Cell Growth Diff. 8:1267-1276). In these experiments, EMSAs are performed using the ^32P-labeled sis-inducible element (SIE) as a probe to detect STAT DNA-binding activity in nuclear extracts of cells. This synthetic DNA oligonucleotide probe is a high-affinity mutant of the c-fos SIE, called hSIE, that binds both STAT1 and STAT3 (Yu, et al., 1995, Science 269:81-83). […] This activation is constitutive and occurs in the absence of exogenous EGF stimulation. By contrast, STAT3 activation is not detected in any of the three cell lines derived from normal breast tissue.
The involvement of these, and other, tyrosine kinases in STAT3 activation is tested using specific inhibitors of JAK family kinases, and the EGF receptor and Src family kinases.

U266 cells = test: Cell cycle analysis and spontaneous cell death of U266 cells; format: cell-based, human
Experimental: For surface detection of the Fas receptor, 10^6 cells are suspended in […] PBS with 2.5 mg/ml mouse IgM (Sigma) and […] UB2 antibody (MBL) or IgG1, isotype control serum (Dako). Following 30 min incubation at room temperature, cells are washed with PBS, and incubated in the dark for 30 min with goat anti-mouse Ig-FITC. Fluorescence is measured on a FACScan flow cytometer and analyzed using CellQuest software (Becton Dickinson). For cell cycle analysis, 10^6 cells are fixed in ice-cold ethanol for a minimum of 2 h, washed with PBS, and stained with 5 mg/ml propidium iodide (PI) and […] at 37° C. for 30 min prior to analysis by flow cytometry. Sensitivity to Fas-mediated apoptosis is determined by exposing cells to 500 ng/ml agonistic antibody (CH-11, MBL) or 100 ng/ml Fas ligand (Alexis) for 18-24 h. Apoptosis is measured by staining with Annexin V-FITC (Clontech) and flow cytometry analysis. Fas-specific death is calculated as (% Annexin V positive cells in the CH-11 treated population)−(% Annexin V positive cells in the IgM control population). Programmed cell death in cells transfected with the bicistronic green fluorescent protein vectors (pIRES-EGFP or pIRES-Stat3b) is analyzed after staining with Annexin V-PE (Pharmingen) by two color flow cytometry analysis. […]

MOPC tumors = test: MOPC myeloma tumor growth in vivo; set-up: species or system BALB/c mice
Experimental: (§1) Mice and tumor formation in vivo. Six- to eight-week old female BALB/c mice are obtained from the National Cancer Institute (Frederick, Md.). Cohorts of 3-5 mice per group are used for these experiments. Mice are shaved on the right flank and injected subcutaneously (s.c.) with 5×10^5 of either MOPC or MPC11 cells in […] of PBS to induce tumors.
(§2) In vivo treatment with AG-490 and IL-12. When tumors reach about 5 […] in diameter, AG-490 treatment of tumors is initiated and continued daily for 7-10 days. For MOPC tumors, injections of 0.85 mg/day of AG-490 are given intratumorally, supplemented with 0.5 mg/day of AG-490 i.p. For MPC11 tumors, the intratumoral treatment is halved while the i.p. dose remains the same. Control mice receive 50% DMSO vehicle alone in the same volume as the AG-490 treatment group. Recombinant IL-12 is given s.c. at either 100 ng or 200 ng every other day. Tumor growth is monitored daily by measuring two perpendicular tumor diameters with a caliper, and tumor volume was calculated according to the formula V=0.52*a*b(a+b)/2 (a=smallest superficial diameter; b=largest superficial diameter).

MPC11 tumors = test: MPC11 myeloma tumor growth in vivo; set-up: species or system BALB/c mice
Experimental: as §1, §2

splenocytes = test: IL-12-induced IFN-g production by splenocytes ex vivo; format: in vivo; settings: mice treated i.p. with AG-490 (0.5 mg) daily 4 days, rIL-12 last two days
Experimental: Mice are treated daily with i.p. injections of […] of AG-490 (0.5 mg) or DMSO vehicle (50%) for a total of 4 days. During the last two days of AG-490 or DMSO treatment, daily i.p. injection of 400 ng of recombinant IL-12 (rIL-12) (Genetics Institute, Cambridge, Mass.) is also given simultaneously with either AG-490 or DMSO. Two days after the last treatment of AG-490, single cell suspensions of splenocytes are prepared from individual mice. The splenocytes are treated with 100 U/ml rIL-2 to induce IFN-g production. IFN-g ELISA (Genzyme, Cambridge, Mass.) is performed as described previously (Tan, et al., 1996, Cancer Res 56:3399).

For `N#C/C(=C\c1ccc(O)c(O)c1)C(=O)NCc1ccccc1` [AG490], the “constitutive STAT3 activation (STAT3 DNA-binding activity)” value (STAT3) was “effectively blocked”, the spontaneous cell death (U266 cells; AG490, 72 hours) was “extensive spontaneous cell death” and the “cells accumulating in G1” value (U266 cells; AG490 for 48 h) was 70%. For the same molecule, the “time to complete regression of all treated tumors” value (MOPC tumors; 5-mm pre-existing MOPC tumors, AG-490 0.85 mg/day intratumorally plus 0.5 mg/day i.p.) was 3 to 8 days, the “tumor regrowth after regression” value (MOPC tumors; MOPC tumors, AG-490 treated mice) was “tumor regrowth is observed in all of the AG-490 treated mice except for one” and the “time to tumor regrowth or metastasis after termination of treatment” value (MPC11 tumors; MPC11 tumors) was 4 to 7 days. For the same molecule, the MPC11 tumor response (MPC11 tumors; pre-existing MPC11 tumors, all treated mice) was “rapid rejection; also recorded: all of the tumors in AG-490-treated mice regressed” and the “IL-12-induced IFN-g production by splenocytes” value (splenocytes) was “slight suppression”.
